Experimental data reported in US20260115201A1, “POTENTIAL THERAPEUTICS FOR FIBROSIS BY BLOCKING THE INCREASE OF A KEY ENZYME” (THE TEXAS A&M UNIVERSITY SYSTEM, priority 2022, published 2026).

System: bleomycin treated mice
Assay: Bleomycin-induced pulmonary fibrosis in mice (survival, weight, BAL cells, lung collagen)
Assay type: in vivo, C57BL/6 mice
Experimental: The successful aspiration of bleomycin into the lungs was confirmed by listening for a crackling noise heard after the aspiration. 100 μl DMSO or 20 mg/kg RK33 in 100 μl DMSO was given to mice by intraperitoneal (IP) injection at day 10, 12, 14, 16, 18 and 20 after bleomycin treatment. Mice were weighed daily, and euthanized using CO2 following NIH guidelines at day 21 after bleomycin aspiration. The experiment was performed in accordance with the recommendations in the Guide for the Care and Use of Laboratory Animals of the National Institutes of Health. The Texas A&M University Animal Use and Care Committee approved the protocol.
The BALs were clarified by centrifugation at 500×g for 10 minutes, and the supernatants were transferred to Eppendorf tubes. The cells collected from BAL were counted, and BAL cytospins were prepared as described in Fibroblasts secrete Slit2 to inhibit fibrocyte differentiation and fibrosis, Proc Natl Acad Sci USA, 2014, 111: 18291-18296. BAL cytospins were fixed and treated with Wright-Giemsa stain (#08711, Polysciences, Inc., Warrington, PA) following Variation of differential cell counts of bronchoalveolar lavage fluid, Archives of pathology & laboratory medicine, 1986, 110(4): 341-343.
After collection of BAL fluid, mouse lungs were inflated with prewarmed Optimal Cutting Temperature (OCT) embedding medium (VWR, Radnor, PA) and then embedded in OCT, frozen on dry ice, and then stored at −80° C. 8-micron cryosections of mouse lungs were mounted on Superfrost Plus® microscope slides (VWR). The sections on the slides were allowed to air-dry for 24-48 hours. Total collagen on the mouse lung sections were stained with picrosirius red as described in Reduction of bleomycin-induced pulmonary fibrosis by serum amyloid P, J Immunol, 2007, 179: 4035-4044. Hydroxyproline in the mouse lung tissue was measured with a hydroxyproline assay as described in Attenuated pulmonary fibrosis in sialidase-3 knockout (Neu3−/−) mice, Am J Physiol Lung Cell Mol Physiol, 2020, 318(1): L165-L179.

[1] = 20 mg/kg IP, day 21 (FIGS. 6A-6B)

With “(diimidazo[4,5-d:4′,5′-f]-[1,3]diazepine) [RK33]” the survival rate (20 mg/kg IP at day 10, 12, 14, 16, 18 and 20, to day 21 (FIG. 3)) was “dramatically increased”, the body weight recovery (20 mg/kg IP at day 10-20 every other day (FIG. 4)) was “improved” and the “total cell number in BAL” value (20 mg/kg IP, day 21 (FIG. 5A)) was “significantly blocked the bleomycin effect”. The “total collagen in lungs, hydroxyproline assay” value (20 mg/kg IP, day 21 (FIG. 7)) was “reduced the abnormally high levels of collagen”, the “difference between lung of bleomycin+RK33 treated mouse and control mouse, picrosirius red collagen” value [1] was “no significant difference” and the “total collagen in lungs, picrosirius red staining” value [1] was “reduced the abnormally high levels of collagen”. The “percentage of lymphocytes in BAL” value (20 mg/kg IP, day 21, Wright-Giemsa stain (FIG. 5B)) was “significantly blocked the bleomycin effect”.
